Measured values taken from patent US9388139B2, “Derivatives of celeboxib, use thereof and preparation thereof” (German University, priority 2011, dated 2016).

Legend:
Test in all cases: Tumor cell growth inhibition panel
Assay type in all cases: cell-based
SK-MEL-28 = conditions: Homo sapiens, Melanoma
Description: (§1) Thus, compound 12 is able to show broad spectrum tumor cell growth inhibitory activity independent of cyclooxygenase inhibition, whereas PDE5 may be the major contributor to such activity.
(§2) The human tumor cell lines were purchased from the American Type Culture Collection (Mansassas, Va.) and maintained in RPMI-1640+2.0 g/L glucose pH 7.4+5% FBS+4 mM glutamine (complete growth medium), incubated at 37° C. in 5% CO2, and passaged at subconfluent density. The human fetal colon FHC cells were cultured in DMEM:F12 medium supplemented with 10% FBS, cholera toxin (10 ng/mL), 5 μg/ml transferrin, 5 μg/ml insulin, and 100 ng/ml hydrocortisone. The passage number was routinely limited to approximately 20 and morphology monitored with each passage, but no additional authentication of the cell lines was performed.
(§3) Cells were plated in 96-well microtiter plates at a density of 5,000 cells per well and allowed to adhere overnight prior to treatment. Cells were treated with a 2-log concentration range of either SS or SBA and incubated for an additional 72 hours. For siRNA assays, cells were transfected in OptiMEM media with 0.5% SureFECT transfection reagent and 200 nmol/L of either negative control or PDE5 siRNA and incubated at 37° C. for 24 h prior to treatment. At the end of the incubation period, relative cell viability was compared to vehicle controls using the Cell Titer Glo Assay (Promega, Madison Wis.), which measures viable cells based on ATP content, according to the manufacturer's specifications.

HT29 = conditions: Homo sapiens, HT-29, Colon
Description: as §1, §2, §3

KM12 = conditions: Homo sapiens, Colon
Description: as §1, §2, §3

NCI-H460 = conditions: Homo sapiens, Lung
Description: as §1, §2, §3

HCT-116 = conditions: Homo sapiens, Colon
Description: as §1, §2, §3

NCI-H322M = conditions: Homo sapiens, Lung
Description: as §1, §2, §3

HOP-92 = conditions: Homo sapiens, Lung
Description: as §1, §2, §3

MALME-3M = conditions: Homo sapiens, Melanoma
Description: as §1, §2, §3

BT-549 = conditions: Homo sapiens, Breast
Description: as §1, §2, §3

LOX IMV1 = conditions: Homo sapiens, Melanoma
Description: as §1, §2, §3

HOP-62 = conditions: Homo sapiens, Lung
Description: as §1, §2, §3

T-47D = conditions: Homo sapiens, T47D, Breast
Description: as §1, §2, §3

DU-145 = conditions: Homo sapiens, Prostate
Description: as §1, §2, §3

786-0 = conditions: Homo sapiens, Renal
Description: as §1, §2, §3

A549 = conditions: Homo sapiens, Lung
Description: as §1, §2, §3

MDA-MB-435 = conditions: Homo sapiens, Melanoma
Description: as §1, §2, §3

HCC-2998 = conditions: Homo sapiens, Colon
Description: as §1, §2, §3

NCI-H23 = conditions: Homo sapiens, Lung
Description: as §1, §2, §3

RXF-393 = conditions: Homo sapiens, Renal
Description: as §1, §2, §3

SNB-75 = conditions: Homo sapiens, CNS
Description: as §1, §2, §3

UACC-257 = conditions: Homo sapiens, Melanoma
Description: as §1, §2, §3

MDA-MB-231 = conditions: Homo sapiens, Breast
Description: as §1, §2, §3

MDA-MB-468 = conditions: Homo sapiens, Breast
Description: as §1, §2, §3

U251 = conditions: Homo sapiens, U-251, CNS
Description: as §1, §2, §3

MCF-7 = conditions: Homo sapiens, MCF7, Breast
Description: as §1, §2, §3

SK-MEL-2 = conditions: Homo sapiens, Melanoma
Description: as §1, §2, §3

SW-620 = conditions: Homo sapiens, Colon
Description: as §1, §2, §3

SF-295 = conditions: Homo sapiens, CNS
Description: as §1, §2, §3

SR = conditions: Homo sapiens, Hematopoietic
Description: as §1, §2, §3

OVCAR-5 = conditions: Homo sapiens, Ovarian
Description: as §1, §2, §3

SF-539 = conditions: Homo sapiens, CNS
Description: as §1, §2, §3

SF-268 = conditions: Homo sapiens, CNS
Description: as §1, §2, §3

IGROV-1 = conditions: Homo sapiens, Ovarian
Description: as §1, §2, §3

NCI-H226 = conditions: Homo sapiens, Lung
Description: as §1, §2, §3

TK-10 = conditions: Homo sapiens, Renal
Description: as §1, §2, §3

Hs578T = conditions: Homo sapiens, Hs-578T, Breast
Description: as §1, §2, §3

SKOV-3 = conditions: Homo sapiens, SK-OV-3, Ovarian
Description: as §1, §2, §3

SN12C = conditions: Homo sapiens, Renal
Description: as §1, §2, §3

HL-60 (TB) = conditions: Homo sapiens, Hematopoietic
Description: as §1, §2, §3

OVCAR-8 = conditions: Homo sapiens, Ovarian
Description: as §1, §2, §3

COL0205 = conditions: Homo sapiens, Colon
Description: as §1, §2, §3

RPMI-8226 = conditions: Homo sapiens, Hematopoietic
Description: as §1, §2, §3

MOLT-4 = conditions: Homo sapiens, Hematopoietic
Description: as §1, §2, §3

OVCAR-4 = conditions: Homo sapiens, Ovarian
Description: as §1, §2, §3

CC(C)(C)C1=NN(c2ccc(C(=O)O)cc2)C(c2ccc(Cl)cc2Cl)C1 (centres unmarked) [Compound 12, 4-(3-(tert-Butyl)-5-(2,4-dichlorophenyl)-4,5-dihydro-1H-pyrazol-1-yl)benzoic acid]
IC50 (SK-MEL-28): 72.4 µM
IC50 (HT29): 29.8 µM
IC50 (KM12): 34.7 µM
IC50 (NCI-H460): 42.9 µM
IC50 (HCT-116): 39 µM
IC50 (NCI-H322M): 49.8 µM
IC50 (HOP-92): 52.8 µM
IC50 (MALME-3M): 65.7 µM
IC50 (BT-549): 54.7 µM
IC50 (LOX IMV1): 50.5 µM
IC50 (HOP-62): 37.4 µM
IC50 (T-47D): 63 µM
IC50 (DU-145): 59.6 µM
IC50 (786-0): 46.4 µM
IC50 (A549): 58 µM
IC50 (MDA-MB-435): 50.8 µM
IC50 (HCC-2998): 41.9 µM
IC50 (NCI-H23): 40.6 µM
IC50 (RXF-393): 46.7 µM
IC50 (SNB-75): 67.8 µM
IC50 (UACC-257): 70 µM
IC50 (MDA-MB-231): 64.4 µM
IC50 (MDA-MB-468): 58.5 µM
IC50 (U251): 33.3 µM
IC50 (MCF-7): 52.4 µM
IC50 (SK-MEL-2): 44.5 µM
IC50 (SW-620): 51.8 µM
IC50 (SF-295): 45.8 µM
IC50 (SR): 43 µM
IC50 (OVCAR-5): 59.4 µM
IC50 (SF-539): 52.9 µM
IC50 (SF-268): 41.1 µM
IC50 (IGROV-1): 59 µM
IC50 (NCI-H226): 56.4 µM
IC50 (TK-10): 74 µM
IC50 (Hs578T): 48.9 µM
IC50 (SKOV-3): 87.4 µM
IC50 (SN12C): 50 µM
IC50 (HL-60 (TB)): 34.5 µM
IC50 (OVCAR-8): 45.8 µM
IC50 (COL0205): 31.3 µM
IC50 (RPMI-8226): 23.2 µM
IC50 (MOLT-4): 20.7 µM
IC50 (OVCAR-4): 54.9 µM
